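Five compound concentrations were applied to cells in 96-well plates for 48 hours; endpoints were derived by simple linear interpolation of the resulting dose-response curve. At the GI50, growth is halved. TGI: concentration producing complete growth inhibition.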
Assays:
Assay in all cases: NCI tumour cell line growth inhibition, 48 h
OVCAR-8 ovarian = system: OVCAR-8 ovarian
NCI/ADR-RES ovarian = system: NCI/ADR-RES ovarian
EKVX NSCLC = system: EKVX NSCLC
UACC-257 melanoma = system: UACC-257 melanoma
A498 renal = system: A498 renal
786-0 renal = system: 786-0 renal
MCF7 breast = system: MCF7 breast
UACC-62 melanoma = system: UACC-62 melanoma
K-562 leukemia = system: K-562 leukemia
RPMI-8226 leukemia = system: RPMI-8226 leukemia
HS 578T breast = system: HS 578T breast
SF-295 CNS = system: SF-295 CNS
TK-10 renal = system: TK-10 renal
SK-MEL-28 melanoma = system: SK-MEL-28 melanoma
MDA-MB-231 breast = system: MDA-MB-231 breast
SF-539 CNS = system: SF-539 CNS
NCI-H23 lung = system: NCI-H23 lung
NCI-H460 lung = system: NCI-H460 lung
HT29 colon = system: HT29 colon
COLO 205 colon = system: COLO 205 colon
NCI-H226 lung = system: NCI-H226 lung
LOX IMVI melanoma = system: LOX IMVI melanoma
KM12 colon = system: KM12 colon
HCC-2998 colon = system: HCC-2998 colon
SK-MEL-2 melanoma = system: SK-MEL-2 melanoma
SNB-19 CNS = system: SNB-19 CNS
UO-31 renal = system: UO-31 renal
SF-268 CNS = system: SF-268 CNS
IGROV1 ovarian = system: IGROV1 ovarian
HOP-92 NSCLC = system: HOP-92 NSCLC
SR leukemia = system: SR leukemia
OVCAR-4 ovarian = system: OVCAR-4 ovarian
RXF 393 renal = system: RXF 393 renal
MDA-MB-435 = system: MDA-MB-435
T-47D breast = system: T-47D breast
PC-3 prostate = system: PC-3 prostate
SK-MEL-5 melanoma = system: SK-MEL-5 melanoma
HOP-62 NSCLC = system: HOP-62 NSCLC
U251 CNS = system: U251 CNS
HCT-116 colon = system: HCT-116 colon
SW-620 colon = system: SW-620 colon
M14 melanoma = system: M14 melanoma
DU-145 prostate = system: DU-145 prostate
CAKI-1 renal = system: CAKI-1 renal
MOLT-4 leukemia = system: MOLT-4 leukemia
HCT-15 colon = system: HCT-15 colon
SK-OV-3 ovarian = system: SK-OV-3 ovarian
CCRF-CEM leukemia = system: CCRF-CEM leukemia
SNB-75 CNS = system: SNB-75 CNS
HL-60(TB) leukemia = system: HL-60(TB) leukemia
ACHN renal = system: ACHN renal
MALME-3M melanoma = system: MALME-3M melanoma
SN12C renal = system: SN12C renal
OVCAR-3 ovarian = system: OVCAR-3 ovarian
OVCAR-5 ovarian = system: OVCAR-5 ovarian
A549 NSCLC = system: A549 NSCLC
NCI-H522 lung = system: NCI-H522 lung

## CC(=O)Nc1ccc(-c2nc3ccccc3s2)cc1
OVCAR-8 ovarian
  TGI: > 100 µM
NCI/ADR-RES ovarian
  TGI: > 100 µM
EKVX NSCLC
  TGI: > 100 µM
UACC-257 melanoma
  TGI: > 100 µM
A498 renal
  TGI: 38.4 µM
786-0 renal
  TGI: 64.8 µM
MCF7 breast
  TGI: > 100 µM
UACC-62 melanoma
  TGI: > 100 µM
K-562 leukemia
  TGI: 77 µM
RPMI-8226 leukemia
  TGI: > 100 µM
HS 578T breast
  TGI: > 100 µM
SF-295 CNS
  TGI: > 100 µM
TK-10 renal
  TGI: > 100 µM
SK-MEL-28 melanoma
  TGI: > 100 µM
MDA-MB-231 breast
  TGI: 96.1 µM
SF-539 CNS
  TGI: 67.1 µM
NCI-H23 lung
  TGI: > 100 µM
NCI-H460 lung
  TGI: > 100 µM
HT29 colon
  TGI: > 100 µM
COLO 205 colon
  TGI: > 100 µM
NCI-H226 lung
  TGI: > 100 µM
LOX IMVI melanoma
  TGI: > 100 µM
KM12 colon
  TGI: > 100 µM
HCC-2998 colon
  TGI: > 100 µM
SK-MEL-2 melanoma
  TGI: > 100 µM
SNB-19 CNS
  TGI: > 100 µM
UO-31 renal
  TGI: > 100 µM
SF-268 CNS
  TGI: > 100 µM
IGROV1 ovarian
  TGI: > 100 µM
HOP-92 NSCLC
  TGI: > 100 µM
SR leukemia
  TGI: > 100 µM
OVCAR-4 ovarian
  TGI: > 100 µM
RXF 393 renal
  TGI: 74.4 µM
MDA-MB-435
  TGI: > 100 µM
T-47D breast
  TGI: > 100 µM
PC-3 prostate
  TGI: > 100 µM
SK-MEL-5 melanoma
  TGI: > 100 µM
HOP-62 NSCLC
  TGI: 45.8 µM
U251 CNS
  TGI: 92.6 µM
HCT-116 colon
  TGI: > 100 µM
SW-620 colon
  TGI: > 100 µM
M14 melanoma
  TGI: > 100 µM
DU-145 prostate
  TGI: 40.1 µM
CAKI-1 renal
  TGI: 53.8 µM
MOLT-4 leukemia
  TGI: > 100 µM
HCT-15 colon
  TGI: > 100 µM
SK-OV-3 ovarian
  TGI: 59.5 µM
CCRF-CEM leukemia
  TGI: > 100 µM
SNB-75 CNS
  TGI: 90.9 µM
HL-60(TB) leukemia
  TGI: > 100 µM
ACHN renal
  TGI: 92.3 µM

## COc1ccccc1N1CCN(CCCn2c(=O)c3c(OC)nc(C)cc3c(=O)n2-c2ccccc2)CC1
NCI/ADR-RES ovarian
  GI50: > 100 µM
  TGI: > 100 µM
EKVX NSCLC
  GI50: > 100 µM
  TGI: > 100 µM
MALME-3M melanoma
  GI50: > 100 µM
  TGI: > 100 µM
A498 renal
  GI50: > 100 µM
  TGI: > 100 µM
SN12C renal
  GI50: > 100 µM
  TGI: > 100 µM
786-0 renal
  GI50: > 100 µM
  TGI: > 100 µM
MCF7 breast
  GI50: > 100 µM
  TGI: > 100 µM
UACC-62 melanoma
  GI50: > 100 µM
  TGI: > 100 µM
K-562 leukemia
  GI50: > 100 µM
  TGI: > 100 µM
OVCAR-3 ovarian
  GI50: > 100 µM
  TGI: > 100 µM
RPMI-8226 leukemia
  GI50: > 100 µM
  TGI: > 100 µM
HS 578T breast
  GI50: > 100 µM
  TGI: > 100 µM
SF-295 CNS
  GI50: > 100 µM
  TGI: > 100 µM
TK-10 renal
  GI50: > 100 µM
  TGI: > 100 µM
OVCAR-5 ovarian
  GI50: > 100 µM
  TGI: > 100 µM
SK-MEL-28 melanoma
  GI50: > 100 µM
  TGI: > 100 µM
MDA-MB-231 breast
  GI50: > 100 µM
  TGI: > 100 µM
A549 NSCLC
  GI50: > 100 µM
  TGI: > 100 µM
SF-539 CNS
  GI50: > 100 µM
  TGI: > 100 µM
NCI-H23 lung
  GI50: > 100 µM
  TGI: > 100 µM
NCI-H460 lung
  GI50: > 100 µM
  TGI: > 100 µM
HT29 colon
  GI50: > 100 µM
  TGI: > 100 µM
COLO 205 colon
  GI50: > 100 µM
  TGI: > 100 µM
NCI-H226 lung
  GI50: > 100 µM
  TGI: > 100 µM
LOX IMVI melanoma
  GI50: > 100 µM
  TGI: > 100 µM
KM12 colon
  GI50: > 100 µM
  TGI: > 100 µM
HCC-2998 colon
  GI50: > 100 µM
  TGI: > 100 µM
SK-MEL-2 melanoma
  GI50: > 100 µM
  TGI: > 100 µM
SNB-19 CNS
  GI50: > 100 µM
  TGI: > 100 µM
UO-31 renal
  GI50: > 100 µM
  TGI: > 100 µM
NCI-H522 lung
  GI50: > 100 µM
  TGI: > 100 µM
SF-268 CNS
  GI50: > 100 µM
  TGI: > 100 µM
IGROV1 ovarian
  GI50: > 100 µM
  TGI: > 100 µM
HOP-92 NSCLC
  GI50: > 100 µM
  TGI: > 100 µM
SR leukemia
  GI50: > 100 µM
  TGI: > 100 µM
OVCAR-4 ovarian
  GI50: > 100 µM
  TGI: > 100 µM
MDA-MB-435
  GI50: > 100 µM
  TGI: > 100 µM
T-47D breast
  GI50: > 100 µM
  TGI: > 100 µM
PC-3 prostate
  GI50: > 100 µM
  TGI: > 100 µM
SK-MEL-5 melanoma
  GI50: > 100 µM
  TGI: > 100 µM
HOP-62 NSCLC
  GI50: > 100 µM
  TGI: > 100 µM
U251 CNS
  GI50: > 100 µM
  TGI: > 100 µM
HCT-116 colon
  GI50: > 100 µM
  TGI: > 100 µM
SW-620 colon
  GI50: > 100 µM
  TGI: > 100 µM
M14 melanoma
  GI50: > 100 µM
  TGI: > 100 µM
DU-145 prostate
  GI50: > 100 µM
  TGI: > 100 µM
CAKI-1 renal
  GI50: > 100 µM
  TGI: > 100 µM
MOLT-4 leukemia
  GI50: > 100 µM
  TGI: > 100 µM
HCT-15 colon
  GI50: > 100 µM
  TGI: > 100 µM
SK-OV-3 ovarian
  GI50: > 100 µM
  TGI: > 100 µM
CCRF-CEM leukemia
  GI50: > 100 µM
  TGI: > 100 µM
SNB-75 CNS
  GI50: > 100 µM
  TGI: > 100 µM
HL-60(TB) leukemia
  GI50: > 100 µM
  TGI: > 100 µM
ACHN renal
  GI50: > 100 µM
  TGI: > 100 µM
